# In patent US8829213B2, “Liver X receptor agonists” (The University of Chicago, priority 2009, dated 2014):
# How the values were obtained:
# human LXRα or LXRβ = test: Luciferase-based reporter gene assay for LXR agonism; assay type: cell-based; conditions: HEK293 cells co-transfected with human LXRα or LXRβ, 48 hours
# Method: The ability of Compound 1 to act as an LXR agonist was tested using a luciferase-based reporter gene assay according to the method described in Graham et al., Virology, 1973, 52:456. The assay is described below:
# Wells of a 48-well plate were seeded with 50,000 human embryonic kidney (HEK293) cells in 0.25 mL of Dulbecco's modified Eagle's media containing 10% charcoal-stripped fetal bovine serum (DMEM+10% CS-FBS). HEK293 cells were co-transfected with various plasmid DNAs using a calcium phosphate co-precipitation method (Graham et al., Virology, 1973, 52:456). To each well was added 0.25 mL of a transfection mix (1.36 mL transfection components and 11.5 mL DMEM+10% CS-FBS) containing 60 ng of a firefly luciferase-based reporter plasmid, 60 ng of pSG5 containing human LXRα or LXRβ cDNA, 0.6 ng of the sea pansy luciferase normalization plasmid phRL-TK (Promega), and 220 ng of pBS/SK+II. […] Firefly and sea pansy luciferase activities in the lysate were measured using a dual luciferase assay (Promega) and a Monolight luminometer. […] Fold activation of the firefly luciferase reporter plasmid was calculated from normalized relative light units in the presence and absence of the test compound.
# LDLR−/− mice [1] = test: Atherosclerotic lesion quantification in LDLR−/− mice fed an atherogenic diet; assay type: in vivo; conditions: 8 weeks
# Method: (§1) Eight-week old male LDLR−/− mice on a C57BL/6 background (obtained from Jackson Laboratory) were fed an atherogenic diet (TD94059, Harlan TEKLAD, Madison, Wis.) for 8 weeks. During the same period, the mice received Compound 1 daily by gavage at a dose of 3 or 5 mg/kg in a microemulsion prepared by the method described in Gao et al., Int J Pharm 1998, 161:75-86). The control group (vehicle) received a microemulsion without Compound 1. After 8 weeks, the mice were fasted for 4 hours and anesthetized with ketamine (100 mg/kg) and xylazine (10 mg/kg). A blood sample was collected from the retro-orbital plexus of each mouse. 200 μl of plasma was fractionated on tandem Superose 6 fast protein liquid chromatography columns (Reardon et al., 2001). Cholesterol and triglyceride in the even-numbered fast protein liquid chromatography fractions and in plasma samples were measured using commercial kits (Stanbio Laboratory, Boerne, Tex.).
# The mice were then perfused transcardially with PBS and then paraformaldehyde. The hearts and upper vasculatures were removed and prepared for histology as described in Reardon et al., Arterioscler Thromb Vasc Biol 2001, 21:1011-1016.
# Lesions in the innominate artery were quantified using 4 digitally captured oil red O-stained 10 μm sections, separated by 100 μm and located 150-450 μm distal to the branch point of the innominate artery from the aortic arch. Lesions in the ascending thoracic aorta were assessed from three sections separated by 100 μm and located 100-300 μm below the apex of the lesser curvature of the aortic arch. Aortic sinus lesions were evaluated from 3 sections, separated by 100 μm and beginning at the site of appearance of the coronary artery. OpenLab software version 3.1.5 was used in the quantification.
# LDLR−/− mice [2] = test: Reduction of plasma cholesterol and triglyceride levels in LDLR−/− mice fed an atherogenic diet; assay type: in vivo; conditions: 8 weeks
# Method: as §1
# [3] = daily gavage 3 or 5 mg/kg, vs vehicle
structure (smiles),measurement,setting,value
CC(/C=C/C(O)(C(F)(F)F)C(F)(F)F)C1CCC2C3C[C@H](O)[C@@H]4C[C@H](O)CCC4(C)C3CCC12C (some centres unmarked) [Compound 1],LXR agonist activity (fold activation of firefly luciferase reporter),human LXRα or LXRβ,very effective LXR agonist
same,"mean atherosclerotic lesion area, aortic root",LDLR−/− mice [1]; 3 mg/kg/day,significantly reduced
same,"atherosclerotic plaque size, ascending aorta arch",LDLR−/− mice [1]; 5 mg/kg/day,significantly reduced
same,"atherosclerotic plaque size, innominate artery",LDLR−/− mice [1]; 5 mg/kg/day,significantly reduced
same,"mean atherosclerotic lesion area, aortic root",LDLR−/− mice [1]; 5 mg/kg/day,significantly reduced
same,HDL cholesterol level,LDLR−/− mice [2]; 3 mg/kg daily gavage,not
same,VLDL cholesterol level,LDLR−/− mice [2]; 3 mg/kg daily gavage,reduced
same,triglyceride levels,LDLR−/− mice [2]; 3 mg/kg daily gavage,reduced
same,HDL cholesterol level,LDLR−/− mice [2]; 5 mg/kg daily gavage,not
same,LDL cholesterol level,LDLR−/− mice [2]; 5 mg/kg daily gavage,reduced
same,VLDL cholesterol level,LDLR−/− mice [2]; 5 mg/kg daily gavage,reduced
same,triglyceride levels,LDLR−/− mice [2]; 5 mg/kg daily gavage,reduced
same,cholesterol level in the blood,LDLR−/− mice [2]; [3],marked decrease
same,triglyceride level in the blood,LDLR−/− mice [2]; [3],marked decrease
